In patent US5489591A, “S-triazine derivative and remedy for estrogen-dependent disease containing said derivative as effective component” (Zenyaku Kogyo Kabushiki Kaisha, priority 1992, dated 1996) one finds IC50 data, which are given here for 29 compounds.

pIC50: −log10 of the molar value. Where a name gives a salt, the structure may show the parent alone.

The target in assay [1] is T1, Aromatase (Homo sapiens, UniProt P11511).
T1 construct: human placenta microsome; from tissue; host or cells: human placenta microsomes
T1 sequence (P11511 1-503): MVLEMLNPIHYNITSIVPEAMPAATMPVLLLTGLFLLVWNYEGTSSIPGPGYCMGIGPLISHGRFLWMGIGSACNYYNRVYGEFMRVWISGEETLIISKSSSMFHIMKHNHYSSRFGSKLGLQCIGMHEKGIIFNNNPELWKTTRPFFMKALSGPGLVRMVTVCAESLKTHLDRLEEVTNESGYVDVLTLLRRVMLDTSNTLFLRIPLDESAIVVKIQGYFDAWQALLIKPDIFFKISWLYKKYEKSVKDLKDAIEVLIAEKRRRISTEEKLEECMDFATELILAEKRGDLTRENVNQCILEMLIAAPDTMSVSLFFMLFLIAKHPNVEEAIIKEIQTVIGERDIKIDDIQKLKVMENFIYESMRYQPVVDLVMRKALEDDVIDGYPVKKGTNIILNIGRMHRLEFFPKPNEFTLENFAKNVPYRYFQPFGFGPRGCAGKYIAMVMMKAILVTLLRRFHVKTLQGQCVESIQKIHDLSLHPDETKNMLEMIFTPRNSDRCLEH
The assay is described as follows: Aromatase inhibitory activity (Pharmacological Test 1, human placenta microsome). Type of assay: biochemical. As to conditions: substrate 4-androsten-3,17-dione 1.0×10^-6 M, read-out: AI-IC50. The protocol: Aromatase inhibitory activity was determined according to the method of E. A. Thompson and P. K. Siiteri [J. Biol. Chem., 249, 5364-5372 (1974)]. The each compound to be tested was added to a reaction vial containing human placenta microsome, [1β,2 β-^3 H]4-androsten-3,17-dione (3.3 kBq/500 pmol) and NADPH. […] The obtained [^3 H]H2 O was measured by a liquid scintillation counter. The measured quantity of [3H]H20 was used to determine aromatase activity, and was compared with the activity when incubated without inhibitor to calculate inhibition ratio (%).

The target of assay [2] is T2, cholesterol side-chain cleaving enzyme (Sus scrofa, UniProt P10612).
T2 construct: porcine adrenal mitochondria; from tissue; host or cells: porcine adrenal mitochondria
T2 sequence (P10612 40-520): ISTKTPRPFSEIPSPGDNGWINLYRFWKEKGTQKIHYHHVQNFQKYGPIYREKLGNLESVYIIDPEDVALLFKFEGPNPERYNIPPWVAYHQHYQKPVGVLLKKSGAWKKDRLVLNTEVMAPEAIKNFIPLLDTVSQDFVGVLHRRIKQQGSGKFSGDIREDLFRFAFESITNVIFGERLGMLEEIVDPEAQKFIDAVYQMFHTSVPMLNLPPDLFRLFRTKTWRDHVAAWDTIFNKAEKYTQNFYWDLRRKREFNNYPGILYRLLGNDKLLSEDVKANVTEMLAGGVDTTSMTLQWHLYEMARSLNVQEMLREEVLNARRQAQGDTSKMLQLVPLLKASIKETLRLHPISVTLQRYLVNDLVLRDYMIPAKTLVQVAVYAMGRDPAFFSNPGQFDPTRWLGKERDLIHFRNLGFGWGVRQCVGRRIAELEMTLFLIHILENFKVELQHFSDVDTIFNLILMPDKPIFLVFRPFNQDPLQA
The assay is described as follows: Inhibitory activity against cholesterol side-chain cleaving enzyme (Pharmacological Test 2, porcine adrenal mitochondria). Type of assay: biochemical. As to conditions: substrate 5-cholesten-3β-ol 5.0×10^-6 M, read-out: SCC-IC50. The protocol: Inhibitory activity against cholesterol side-chain cleaving enzyme was determined according to the method of M. Shikita and P. F. Hall [Proc. Nat. […] Briefly, the each compound to be tested was added to a reaction vial containing porcine adrenal mitochondria, [4-^14 C]5-cholesten-3β-ol (250 Bq/5 nmol) and NADPH. […] These were separated by extracting the reaction mixture with methylene-dichloride followed by purifying with thin-layer chromatography. Substrate (5-cholesten-3β-ol) and reaction product (3β-hydroxypregn-5-en-20-one) were respectively measured by a liquid scintillation counter. The measured quantity of 3β-hydroxypregn-5-en-20-one was used to determine cholesterol side-chain cleaving activity which was compared with the activity when incubated without inhibitor to calculate inhibition ratio (%).

By pIC50 is commonly meant the negative decadic logarithm of the IC50, by convention in mol/L. On to `CCN(CC)c1nc(-n2ccnc2)nc(-n2ccnc2)n1` [Compound 25, 2,4-Bis(1-imidazolyl)-6-diethylamino-1,3,5-triazine], for which the negative-log IC50 (pIC50) in assay [1] is 7.22; in assay [2], 4.60.

`CN(C)c1nc(N2CCOCC2)nc(-n2ccnc2)n1` [Compound 1, 2-(1-Imidazolyl)-4-dimethylamino-6-morpholino-1,3,5-triazine]: the results for the pIC50 in assay [1] and in assay [2] were 8.00 and under 4.00, respectively.

Take `c1cn(-c2nc(N3CCCCC3)nc(-n3ccnc3)n2)cn1` [Compound 27, 2,4-Bis(1-imidazolyl)-6-piperidino-1,3,5-triazine]: the results for the pIC50 in assay [1] and in assay [2] were 7.19 and under 4.00, respectively.

As to `c1ccc(N2CCN(c3nc(-n4ccnc4)nc(-n4ccnc4)n3)CC2)cc1` [Compound 30, 2,4-Bis(1-imidazolyl)-6-(4-phenyl-1-piperazinyl)-1,3,5-triazine], the pIC50 is 6.66 in assay [1] and 4.19 in assay [2]. With `CC(C)c1nccn1-c1nc(N(C)C)nc(-n2ccnc2)n1` [Compound 6, 2-(1-Imidazolyl)-4-(2-isopropyl-1-imidazolyl)-6-dimethylamino-1,3,5-triazine], the pIC50 in assay [1] was 5.37; in assay [2], under 4.00. Take `CN(c1ccc(N)cc1)c1nc(N2CCOCC2)nc(-n2ccnc2)n1` [Compound 56, 2-[N-(4-Aminophenyl)-N-methylamino]-4-(1-imidazolyl)-6-morpholino-1,3,5-triazine]: the results for the pIC50 in assay [1] and in assay [2] were 7.49 and under 4.00, respectively. Consider `c1ccc(N2CCN(c3nc(N4CCOCC4)nc(-n4ccnc4)n3)CC2)nc1` [Compound 8, 2-(1-Imidazolyl)-4-morpholino-6-[4-(2-pyridyl)-1-piperazinyl]-1,3,5-triazine], for which the values for the pIC50 in assay [1] and in assay [2] were 7.96 and 4.27, respectively. With `CN(c1ccc(Cl)cc1)c1nc(-n2ccnc2)nc(-n2ccnc2)n1` [Compound 54, 2-[N-(4-Chlorophenyl)-N-methylamino]-4,6-bis(1-imidazolyl)-1,3,5-triazine], the pIC50 was 8.07 in assay [1] and 4.72 in assay [2]. Turning to `CN(c1ccccc1)c1nc(N2CCOCC2)nc(-n2ccnc2)n1` [Compound 14, 2-(1-Imidazolyl)-4-(N-methyl-N-phenylamino)-6-morpholino-1,3,5-triazine], the pIC50 is 8.17 in assay [1] and 4.51 in assay [2]. On to `CCCCN(c1ccccc1)c1nc(-n2ccnc2)nc(-n2ccnc2)n1` [Compound 50, 2-(N-n-Butyl-N-phenylamino)-4,6-bis (1-imidazolyl)-1,3,5-triazine], for which the pIC50 in assay [1] was 7.80; in assay [2], 4.82. Taken in the same sequence, the figures for `c1cn(-c2nc(N3CCSCC3)nc(-n3ccnc3)n2)cn1` [Compound 31, 2,4-Bis (1-imidazolyl)-6-thiomorpholino-1,3,5-triazine] were 7.37 and under 4.00. Regarding `c1ccc(C2CCN(c3nc(N4CCSCC4)nc(-n4ccnc4)n3)CC2)cc1` [Compound 39, 2-(1-Imidazolyl)-4-(4-phenylpiperidino)-6-thiomorpholino-1,3,5-triazine], the pIC50 was 7.70 in assay [1] and 4.43 in assay [2]. Turning to `CCC1(c2ccc(N)cc2)CCC(=O)NC1=O` (centres unmarked) [AG, aminoglutethimide, reference compound], the negative logarithm of the IC50 (pIC50) in assay [2] was 4.18. With `CN1CCN(c2nc(-n3ccnc3)nc(-n3ccnc3)n2)CC1` [Compound 29, 2,4-Bis (1-imidazolyl)-6-(4-methyl-1-piperazinyl)-1,3,5-triazine], the figures for the pIC50 in assay [1] and in assay [2] were 6.64 and 4.12, respectively. For the compound `O=[N+]([O-])c1ccc(N2CCN(c3nc(N4CCOCC4)nc(-n4ccnc4)n3)CC2)cc1` [Compound 45, 2-(1-Imidazolyl)-4-morpholino-6-[4-(4-nitrophenyl)-1-piperazinyl]-1,3,5-triazine], the pIC50 in assay [1] is 8.14; in assay [2] it was under 4.00. For the compound `CCOC(=O)C1CCN(c2nc(N3CCOCC3)nc(-n3ccnc3)n2)CC1` [Compound 40, 2-(4-Ethoxycarbonylpiperidino)-4-(1-imidazolyl)-6-morpholino-1,3,5-triazine], the pIC50 is 7.62 in assay [1] and 4.18 in assay [2]. Taken in the same sequence, the figures for `c1cn(-c2nc(N3CCSCC3)nc(N3CCSCC3)n2)cn1` [Compound 21, 2-(1-Imidazolyl)-4,6-bis(thiomorpholino)-1,3,5-triazine] were 8.29 and 4.00.

Take `Nc1ccc(N2CCN(c3nc(N4CCOCC4)nc(-n4ccnc4)n3)CC2)cc1` [hydrochloride of No. 57, Hydrochloride of 2-[4-(4-aminophenyl)-1-piperazinyl]-4-(1-imidazolyl)-6-morpholino-1,3,5-triazine]: the pIC50 was 7.51 in assay [1] and under 4.00 in assay [2]. `CN(C)c1nc(N2CCCCC2)nc(-n2ccnc2)n1` [Compound 3, 2-(1-Imidazolyl)-4-dimethylamino-6-piperidino-1,3,5-triazine]: the results for the pIC50 in assay [1] and in assay [2] were 6.11 and under 4.00, respectively.

As to `OCCC1CCCCN1c1nc(N2CCOCC2)nc(-n2ccnc2)n1` (centres unmarked) [Compound 47, 2-[2-(2-Hydroxyethyl)piperidino]-4-(1-imidazolyl)-6-morpholino-1,3,5-triazine], the figures for the pIC50 in assay [1] and in assay [2] were 7.36 and under 4.00, respectively. For `c1cnc(N2CCN(c3nc(N4CCOCC4)nc(-n4ccnc4)n3)CC2)nc1` [Compound 44, 2-(1-Imidazolyl)-4-morpholino-6-[4-(2-pyrimidinyl)-1-piperazinyl]-1,3,5-triazine], the pIC50 is 7.48 in assay [1] and under 4.00 in assay [2]. Turning to `CN(c1ccc([N+](=O)[O-])cc1)c1nc(-n2ccnc2)nc(-n2ccnc2)n1` [Compound 52, 2,4-Bis(1-imidazolyl)-6-[N-methyl-N-(4-nitrophenyl)amino]-1,3,5-triazine], the pIC50 is 8.00 in assay [1] and under 4.00 in assay [2]. For the compound `c1cn(-c2nc(N3CCCC3)nc(N3CCCC3)n2)cn1` [Compound 17, 2-(1-Imidazolyl)-4,6-bis(1-pyrrolidinyl)-1,3,5-triazine], the pIC50 in assay [1] was 6.51; in assay [2], under 4.00. `CN(c1ccccc1)c1nc(-n2ccnc2)nc(-n2ccnc2)n1` [Compound 32, 2,4-Bis(1-imidazolyl)-6-(N-methyl-N-phenylamino)-1,3,5-triazine]: the pIC50 is 7.54 in assay [1] and 4.80 in assay [2].

Take `c1ccc(CN2CCN(c3nc(N4CCOCC4)nc(-n4ccnc4)n3)CC2)cc1` [Compound 9, 2-(4-Benzyl-1-piperazinyl)-4-(1-imidazolyl)-6-morpholino-1,3,5-triazine]: the pIC50 in assay [1] was 7.77; in assay [2], 4.82. In the case of `CC1CN(c2nc(N3CCOCC3)nc(-n3ccnc3)n2)CC(C)O1` (centres unmarked) [Compound 10, 2-(1-Imidazolyl)-4-(2,6-dimethylmorpholino)-6-morpholino-1,3,5-triazine], the negative logarithm of the IC50 (pIC50) in assay [1] was 7.51; in assay [2], under 4.00. On to `CN(C)c1nc(N2CCCC2)nc(-n2ccnc2)n1` [Compound 2, 2-(1-Imidazolyl)-4-dimethylamino-6-(1-pyrrolidinyl)-1,3,5-triazine], for which the pIC50 was 5.89 in assay [1] and under 4.00 in assay [2]. Regarding `CN(C)c1nc(N(C)C)nc(N(C)C)n1` [HMM, hexamethylmelamine, reference compound], the pIC50 in assay [2] is under 4.00. Take `c1cn(-c2nc(N3CCOCC3)nc(-n3ccnc3)n2)cn1` [Compound 23, 2,4-Bis(1-imidazolyl)-6-morpholino-1,3,5-triazine]: the pIC50 in assay [1] was 7.68; in assay [2] it was under 4.00.
